Assay results as given in publication PMC11012124, “Synthesis of Novel Triazine-Based Chalcones and 8,9-dihydro-7H-pyrimido[4,5-b][1,4]diazepines as Potential Leads in the Search of Anticancer, Antibacterial and Antifungal Agents” (International Journal of Molecular Sciences, 2024).

Assays:
[1] = Hemolytic activity, spectrophotometric; format: cell-based, human; details: human, human red blood cells (huRBC), 5% hematocrit, 200 μg/mL, 37 °C
CCRF-CEM = assay: cells; details: Homo sapiens, 48 h; for CC50: read-out: LC50
K-562 = assay: cells; details: Homo sapiens, K562, 48 h; for GI50: K-562, 48 h
MOLT-4 = assay: cells; details: Homo sapiens, MOLT-4, 48 h; for CC50: read-out: LC50
A549/ATCC = assay: cells; details: Homo sapiens, A549, 48 h; for CC50: read-out: LC50
EKVX = assay: cells; details: Homo sapiens, 48 h; for CC50: read-out: LC50
HOP-62 = assay: cells; details: Homo sapiens, HOP-62, 48 h; for CC50: read-out: LC50
HOP-92 = assay: cells; details: Homo sapiens, HOP-92, 48 h; for CC50: read-out: LC50
NCI-H23 = assay: cells; details: Homo sapiens, NCI-H23, 48 h; for CC50: read-out: LC50
NCI-H460 = assay: cells; details: Homo sapiens, NCI-H460, 48 h; for CC50: read-out: LC50
COLO 205 = assay: cells; details: Homo sapiens, COLO 205, 48 h; for CC50: read-out: LC50
HCC-2998 = assay: cells; details: Homo sapiens, HCC 2998, 48 h; for CC50: read-out: LC50
HCT-116 = assay: cells; details: Homo sapiens, HCT-116, 48 h; for CC50: read-out: LC50
HCT-15 = assay: cells; details: Homo sapiens, HCT-15, 48 h; for CC50: read-out: LC50
HT29 = assay: cells; details: Homo sapiens, HT-29, 48 h; for CC50: read-out: LC50
KM12 = assay: cells; details: Homo sapiens, KM12, 48 h; for CC50: read-out: LC50
SW-620 = assay: cells; details: Homo sapiens, SW-620, 48 h; for CC50: read-out: LC50
SF-268 = assay: cells; details: Homo sapiens, SF-268, 48 h; for CC50: read-out: LC50
SF-295 = assay: cells; details: Homo sapiens, SF-295, 48 h; for CC50: read-out: LC50
U251 = assay: cells; details: Homo sapiens, U-251, 48 h; for GI50: U251, 48 h; for CC50: read-out: LC50
LOX IMVI = assay: cells; details: Homo sapiens, 48 h; for CC50: read-out: LC50, LOX IMVI, 48 h
MALME-3M = assay: cells; details: Homo sapiens, 48 h; for CC50: read-out: LC50
SK-MEL-2 = assay: cells; details: Homo sapiens, SK-MEL-2, 48 h; for CC50: read-out: LC50
SK-MEL-28 = assay: cells; details: Homo sapiens, SK-MEL-28, 48 h; for CC50: read-out: LC50
SK-MEL-5 = assay: cells; details: Homo sapiens, SK-MEL-5, 48 h; for CC50: read-out: LC50
IGROV1 = assay: cells; details: Homo sapiens, IGROV-1, 48 h; for CC50: read-out: LC50
OVCAR-3 = assay: cells; details: Homo sapiens, OVCAR-3, 48 h; for CC50: read-out: LC50
OVCAR-5 = assay: cells; details: Homo sapiens, OVCAR-5, 48 h; for CC50: read-out: LC50
SK-OV-3 = assay: cells; details: Homo sapiens, SK-OV-3, 48 h; for CC50: read-out: LC50
786-0 = assay: cells; details: Homo sapiens, 786-0, 48 h; for CC50: read-out: LC50
A498 = assay: cells; details: Homo sapiens, A498, 48 h; for CC50: read-out: LC50
ACHN = assay: cells; details: Homo sapiens, 48 h; for CC50: read-out: LC50
CAKI-1 = assay: cells; details: Homo sapiens, CAKI-1, 48 h; for CC50: read-out: LC50
RXF 393 = assay: cells; details: Homo sapiens, RXF 393, 48 h; for CC50: read-out: LC50
UO-31 = assay: cells; details: Homo sapiens, UO-31, 48 h; for CC50: read-out: LC50
PC-3 = assay: cells; details: Homo sapiens, PC-3, 48 h; for CC50: read-out: LC50
MDA-MB-231/ATCC = assay: cells; details: Homo sapiens, MDA-MB-231, 48 h; for CC50: read-out: LC50
T-47D = assay: cells; details: Homo sapiens, T47D, 48 h; for CC50: read-out: LC50

## CN(C)c1nc(NCCNS(=O)(=O)c2ccc(C3=Nc4c(N)nc(N)nc4NC(c4ccccc4)C3)cc2)nc(Nc2ccc(F)cc2)n1 (stereo not shown) [31a]
[1]
  hemolysis at 24 h, 200 µg/mL: 1%
CCRF-CEM
  GI50: 4.02 µM
  CC50: > 100 µM
K-562
  GI50: 4.33 µM
K-562; read-out: LC50
  CC50: > 100 µM
MOLT-4
  GI50: 3.11 µM
  CC50: > 100 µM
A549/ATCC
  GI50: > 100 µM
  CC50: > 100 µM
EKVX
  GI50: 6.65 µM
  CC50: > 100 µM
HOP-62
  GI50: 99.7 µM
  CC50: > 100 µM
HOP-92
  GI50: 2.18 µM
  CC50: 9.96 µM
NCI-H23
  GI50: > 100 µM
  CC50: > 100 µM
NCI-H460
  GI50: 6.49 µM
  CC50: > 100 µM
COLO 205
  GI50: 16.4 µM
  CC50: > 100 µM
HCC-2998
  GI50: 11.7 µM
  CC50: > 100 µM
HCT-116
  GI50: 7.37 µM
  CC50: > 100 µM
HCT-15
  GI50: > 100 µM
  CC50: > 100 µM
HT29
  GI50: 5.32 µM
  CC50: > 100 µM
KM12
  GI50: 8.8 µM
  CC50: > 100 µM
SW-620
  GI50: 40.4 µM
  CC50: > 100 µM
SF-268
  GI50: 9.85 µM
  CC50: > 100 µM
SF-295
  GI50: 9.49 µM
  CC50: > 100 µM
U251
  GI50: 18.4 µM
  CC50: > 100 µM
LOX IMVI
  GI50: 9.96 µM
  CC50: 25.7 µM
MALME-3M
  GI50: 7.34 µM
  CC50: > 100 µM
SK-MEL-2
  GI50: 28.5 µM
  CC50: > 100 µM
SK-MEL-28
  GI50: > 100 µM
  CC50: > 100 µM
SK-MEL-5
  GI50: 5.81 µM
  CC50: 20.5 µM
IGROV1
  GI50: 5.76 µM
  CC50: > 100 µM
OVCAR-3
  GI50: 69.3 µM
  CC50: > 100 µM
OVCAR-5
  GI50: > 100 µM
  CC50: > 100 µM
SK-OV-3
  GI50: > 100 µM
  CC50: > 100 µM
786-0
  GI50: 7.88 µM
  CC50: > 100 µM
A498
  CC50: > 100 µM
ACHN
  GI50: > 100 µM
  CC50: > 100 µM
CAKI-1
  GI50: 9.73 µM
  CC50: > 100 µM
RXF 393
  GI50: 2.55 µM
  CC50: 8.95 µM
UO-31
  GI50: > 100 µM
  CC50: > 100 µM
PC-3
  GI50: 3.84 µM
  CC50: > 100 µM
MDA-MB-231/ATCC
  GI50: 6.16 µM
  CC50: 67.6 µM
T-47D
  GI50: 5.12 µM
  CC50: > 100 µM

## Cc1ccc(C2CC(c3ccc(S(=O)(=O)NCCNc4nc(Nc5ccc(F)cc5)nc(N(C)C)n4)cc3)=Nc3c(N)nc(N)nc3N2)cc1 (stereo not shown) [31b]
[1]
  hemolysis at 24 h, 200 µg/mL: 1.7%
CCRF-CEM
  GI50: 2.81 µM
  CC50: > 100 µM
K-562
  GI50: 2.75 µM
MOLT-4
  GI50: 2.2 µM
  CC50: 7.53 µM
A549/ATCC
  GI50: > 100 µM
  CC50: > 100 µM
EKVX
  GI50: 5.84 µM
  CC50: > 100 µM
HOP-62
  GI50: > 100 µM
  CC50: > 100 µM
HOP-92
  GI50: 2.54 µM
  CC50: 21 µM
NCI-H23
  GI50: 78.8 µM
  CC50: > 100 µM
NCI-H460
  GI50: 4.76 µM
  CC50: > 100 µM
COLO 205
  GI50: 11.5 µM
  CC50: > 100 µM
HCC-2998
  GI50: 2.93 µM
  CC50: 41.1 µM
HCT-116
  GI50: 3.81 µM
  CC50: > 100 µM
HCT-15
  GI50: 4.95 µM
  CC50: > 100 µM
HT29
  GI50: 2.27 µM
  CC50: 4.65 µM
KM12
  GI50: 4.56 µM
  CC50: > 100 µM
SW-620
  GI50: 8.04 µM
  CC50: > 100 µM
SF-268
  GI50: 7.53 µM
  CC50: > 100 µM
SF-295
  GI50: 6.6 µM
  CC50: > 100 µM
U251
  GI50: 7.08 µM
  CC50: > 100 µM
LOX IMVI
  GI50: 2.09 µM
  CC50: 5.11 µM
MALME-3M
  GI50: 4.65 µM
  CC50: 33.2 µM
SK-MEL-2
  GI50: 11.2 µM
  CC50: 77.7 µM
SK-MEL-28
  GI50: 26.9 µM
  CC50: > 100 µM
SK-MEL-5
  GI50: 4.98 µM
  CC50: 20.6 µM
IGROV1
  GI50: 64.4 µM
  CC50: > 100 µM
OVCAR-3
  GI50: 9.93 µM
  CC50: > 100 µM
OVCAR-5
  GI50: > 100 µM
  CC50: > 100 µM
SK-OV-3
  GI50: > 100 µM
  CC50: > 100 µM
786-0
  GI50: 7.06 µM
  CC50: > 100 µM
A498
  GI50: > 100 µM
  CC50: > 100 µM
ACHN
  GI50: > 100 µM
  CC50: > 100 µM
CAKI-1
  GI50: 8.06 µM
  CC50: > 100 µM
RXF 393
  GI50: 2.27 µM
  CC50: 9.12 µM
UO-31
  GI50: > 100 µM
  CC50: > 100 µM
PC-3
  GI50: 3.33 µM
  CC50: > 100 µM
MDA-MB-231/ATCC
  GI50: 3.86 µM
  CC50: > 100 µM
T-47D
  GI50: 8.75 µM
  CC50: > 100 µM
